In data set [1] the test system is Mesenchymal stem cells. Nature of the data set: Anti-adipogenic activity in insulin/dexamthasone/pioglitazone/IBMX differentiated human BMMSC cells assessed as downregulation of adiponectin protein secretion at 1 uM by ELISA. The class given is functional, cell-based. For orientation: An ELISA detects its analyte on a solid surface through an enzyme-linked reagent.

The test system of data set [2] is DNA. In words: Binding affinity to N-terminal of 10-mer c-DNA (unknown origin) assessed as melting temperature at 4 uM by UV-Vis spectrophotometric analysis. In kind it is nucleic-acid assay.
Data set [3] deals with Mesenchymal stem cells. In words: Cytotoxicity against human BMMSC cells assessed as effect on cell viability upto 1 uM incubated for 24 hrs by CCK8 assay. The class given is toxicity, cell-based. In general terms: Tetrazolium assays rely on reduction of a dye to a coloured formazan, in cell work by metabolically active cells.
Data set [4] concerns Mesenchymal stem cells. Nature of the data set: Inhibition of SULF2 mRNA expression in human BMMSC cells at 0.1 uM by RT-qPCR analysis. In kind it is functional, cell-based. In general terms: Quantitative PCR measures a nucleic acid by following its amplification.
Data set [5] relates to Mesenchymal stem cells. In words: Inhibition of SULF2 mRNA expression in human BMMSC cells by RT-qPCR analysis. The following applies: dose 0.01-1 µM. The class given is functional, cell-based.
For data set [6], the system named is Mesenchymal stem cells. In words: Effect on osteogenesis in ascorbic acid/dexamethasone/beta-glycerol phosphate differentiated human BMMSC cells. In kind it is functional, cell-based.
For data set [7], the system named is DNA. Nature of the data set: Binding affinity to C-terminal of 10-mer c-DNA (unknown origin) assessed as melting temperature at 4 uM by UV-Vis spectrophotometric analysis. In kind it is nucleic-acid assay.
Data set [8] concerns Mesenchymal stem cells. In words: Anti-adipogenic activity in insulin/dexamthasone/pioglitazone/IBMX differentiated human BMMSC cells assessed as downregulation of adiponectin protein secretion by ELISA. In kind it is functional, cell-based.
For data set [9], the system named is Mesenchymal stem cells. In words: Anti-adipogenic activity in insulin/dexamthasone/pioglitazone/IBMX differentiated human BMMSC cells assessed as decrease in size of intracellular lipid droplets by Oil red O staining based inverted microscopic analysis. The following applies: dose 0.01-1 µM. In kind it is functional, cell-based.
Data set [10] deals with Mesenchymal stem cells. In words: Anti-adipogenic activity in insulin/dexamthasone/pioglitazone/IBMX differentiated human BMMSC cells assessed as decrease in number of intracellular lipid droplets by Oil red O staining based inverted microscopic analysis. In kind it is functional, cell-based. The following applies: dose 0.01-1 µM.
For data set [11], the system named is DNA. In words: Binding affinity to c-DNA (unknown origin) with mismatch bases assessed as increase in melting temperature by UV-vis spectrophotometric analysis. The class given is nucleic-acid assay.
Data set [12] has as its system DNA. Nature of the data set: Binding affinity to 10-mer DNA (unknown origin) assessed as melting temperature at 4 uM by UV-Vis spectrophotometric analysis. In kind it is nucleic-acid assay.
The nature of data set [13]: Drug penetration in human BMMSC cells assessed as green fluorescence signal at 0.1 uM incubated for 24 hrs by DAPI staining based confocal microscopic analysis. In kind it is ADME, cell-based. The following applies: mesenchymal stem cells.

Calls of active or inactive are those of the source. The rule behind the calls is not given here.

Take `Cc1cn(CC(=O)N(CCNC(=O)CN(CCNC(=O)CN(CCNC(=O)CN(CCNC(=O)CN(CCNC(=O)CN(CCNC(=O)CN(CCNC(=O)CN(CCNC(=O)CN(CCNC(=O)CN(CCNC(=O)CN(CCNC(=O)CN(CCNC(=O)CN(CCNC(=O)CN(CCNC(=O)CN(CCNC(=O)CN(CCNC(=O)CN(CCNC(=O)OCCC2c3ccccc3-c3ccccc32)C(=O)Cn2cnc3c(=O)[nH]c(N)nc32)C(=O)Cn2cnc3c(=O)[nH]c(NCCCCCCN)nc32)C(=O)Cn2cnc3c(=O)[nH]c(N)nc32)C(=O)Cn2ccc(N)nc2=O)C(=O)Cn2cnc3c(N)nc(NCCCCCN)nc32)C(=O)Cn2cnc3c(=O)[nH]c(N)nc32)C(=O)Cn2ccc(N)nc2=O)C(=O)Cn2cnc3c(N)ncnc32)C(=O)Cn2ccc(N)nc2=O)C(=O)Cn2cnc3c(N)nc(NCCCCCN)nc32)C(=O)Cn2cc(C)c(=O)[nH]c2=O)C(=O)Cn2cnc3c(=O)[nH]c(N)nc32)C(=O)Cn2cnc3c(=O)[nH]c(N)nc32)C(=O)Cn2cnc3c(=O)[nH]c(NCCCCCCN)nc32)C(=O)Cn2cc(C)c(=O)[nH]c2=O)C(=O)Cn2cnc3c(=O)[nH]c(N)nc32)CC(N)=O)c(=O)[nH]c1=O`: in the data set on Mesenchymal stem cells [1], the result was Active. Besides, the figures for the Tm in the data set on DNA [2] and in the data set on DNA [7] were 83.5 °C and 75.5 °C, respectively. In addition, the Activity entry with Mesenchymal stem cells [3] was “Non-toxic”. For the same compound, the inhibition entry with Mesenchymal stem cells [4] is “Active”. Also, the inhibition entry with Mesenchymal stem cells [5] was “Dose-dependent-effect”. The outcome in the data set on Mesenchymal stem cells [6] was inactive. Moreover, the concentration for half-maximal inhibition (IC50) in the data set on Mesenchymal stem cells [8] is more than 1000 nM.

For the compound `Cc1cn(CC(=O)N(CCNC(=O)CN(CCNC(=O)CN(CCNC(=O)CN(CCNC(=O)CN(CCNC(=O)CN(CCNC(=O)CN(CCNC(=O)CN(CCNC(=O)CN(CCNC(=O)CN(CCNC(=O)CN(CCNC(=O)OCCC2c3ccccc3-c3ccccc32)C(=O)Cn2cc(C)c(=O)[nH]c2=O)C(=O)Cn2cnc3c(=O)[nH]c(N)nc32)C(=O)Cn2cnc3c(=O)[nH]c(N)nc32)C(=O)Cn2cnc3c(N)nc(NCCCCCN)nc32)C(=O)Cn2cnc3c(=O)[nH]c(N)nc32)C(=O)Cn2cnc3c(=O)[nH]c(N)nc32)C(=O)Cn2cnc3c(N)nc(NCCCCCN)nc32)C(=O)CN2C=NC3C(=O)NC(N)=NC32)C(=O)Cn2ccc(N)nc2=O)C(=O)Cn2cnc3c(=O)[nH]c(NCCCCCCN)nc32)CC(=O)NCCN(CC(=O)NCCN(CC(=O)NCCN(CC(=O)NCCN(CC(=O)NCCN(CC(=O)NCCN(CC(=O)NCCN(CC(=O)NCCN(CC(=O)NCCN(N)C(=O)Cn2cnc3c(=O)[nH]c(N)nc32)C(=O)Cn2cnc3c(N)nc(NCCCCCN)nc32)C(=O)Cn2ccc(N)nc2=O)C(=O)Cn2cnc3c(N)ncnc32)C(=O)Cn2cnc3c(N)ncnc32)C(=O)Cn2cnc3c(=O)[nH]c(NCCCCCCN)nc32)C(=O)Cn2cnc3c(=O)[nH]c(N)nc32)C(=O)Cn2cnc3c(N)ncnc32)C(=O)Cn2cnc3c(=O)[nH]c(N)nc32)c(=O)[nH]c1=O` (centres undefined), the Activity entry was “Dose-dependent-effect” in the data set on Mesenchymal stem cells [9], “Non-toxic” in the data set on Mesenchymal stem cells [3], “Dose-dependent-effect” with Mesenchymal stem cells [10] and “Dose-dependent-effect” with Mesenchymal stem cells [8]. The result with Mesenchymal stem cells [1] was Active. Also, the Tm in the data set on DNA [2] was found to be 68.1 °C; in the data set with DNA [7], 64 °C. The inhibition result in the data set on Mesenchymal stem cells [4] was “Active”. Further, the inhibition entry in the data set on Mesenchymal stem cells [5] is “Dose-dependent-effect”. In addition, the result in the data set with Mesenchymal stem cells [6] was inactive. The IC50 in the data set on Mesenchymal stem cells [8] amounted to 280 nM.

`Cc1cn(CC(=O)N(CCNC(=O)CN(CCNC(=O)CN(CCNC(=O)CN(CCNC(=O)CN(CCNC(=O)CN(CCNC(=O)CN(CCNC(=O)CN(CCNC(=O)CN(CCNC(=O)CN(CCNC(=O)CN(CCNC(=O)CN(CCNC(=O)CN(CCNC(=O)CN(CCNC(=O)CN(CCNC(=O)CN(CCNC(=O)CN(CCNC(=O)CN(CCNC(=O)CN(CCNC(=O)OCCC2c3ccccc3-c3ccccc32)C(=O)Cn2ccc(N)nc2=O)C(=O)Cn2cc(C)c(=O)[nH]c2=O)C(=O)Cn2cc(C)c(=O)[nH]c2=O)C(=O)Cn2cc3cc(COCCN)[nH]c3nc2=O)C(=O)Cn2cc(C)c(=O)[nH]c2=O)C(=O)Cn2cc(C)c(=O)[nH]c2=O)C(=O)Cn2cc(C)c(=O)[nH]c2=O)C(=O)Cn2cc(C)c(=O)[nH]c2=O)C(=O)Cn2cc(C)c(=O)[nH]c2=O)C(=O)Cn2cc(C)c(=O)[nH]c2=O)C(=O)Cn2cc(C)c(=O)[nH]c2=O)C(=O)Cn2cnc3c(=O)[nH]c(NCCCCCCN)nc32)C(=O)Cn2ccc(N)nc2=O)C(=O)Cn2cc(C)c(=O)[nH]c2=O)C(=O)Cn2cnc3c(=O)[nH]c(N)nc32)C(=O)Cn2cnc3c(N)nc(NCCCCCN)nc32)C(=O)Cn2cc(C)c(=O)[nH]c2=O)C(=O)Cn2ccc(N)nc2=O)CC(=O)NCCN(CC(N)=O)C(=O)Cn2cnc3c(=O)[nH]c(NCCCCCCN)nc32)c(=O)[nH]c1=O`: the result in the data set with Mesenchymal stem cells [1] was Active. Also, the Activity entry in the data set with Mesenchymal stem cells [3] was “Non-toxic”. Further, the values for the inhibition entry in the data set on Mesenchymal stem cells [4] and in the data set on Mesenchymal stem cells [5] were “Mild_effect” and “Dose-dependent-effect”, respectively. The result in the data set on Mesenchymal stem cells [6] was inactive. Further, in the data set on DNA [7], the Tm was found to be 70 °C. Further, in the data set on Mesenchymal stem cells [8], the IC50 was more than 1000 nM.

Regarding `NCCCCCNc1nc(N)c2ncn(CC(=O)N(CCNC(=O)CN(CCNC(=O)CN(CCNC(=O)CN(CCN)C(=O)Cn3cnc4c(N)ncnc43)C(=O)Cn3cnc4c(=O)[nH]c(N)nc43)C(=O)Cn3ccc(N)nc3=O)CC(=O)NCCN(CC(=O)NCCN(CC(=O)NCCN(CC(=O)NCCN(CC(=O)NCCN(CC(=O)NCCN(CC(N)=O)C(=O)Cn3cnc4c(N)ncnc43)C(=O)Cn3ccc(N)nc3=O)C(=O)Cn3cnc4c(N)nc(NCCCCCN)nc43)C(=O)Cn3cnc4c(=O)[nH]c(N)nc43)C(=O)Cn3cnc4c(N)nc(NCCCCCN)nc43)C(=O)Cn3ccc(N)nc3=O)c2n1`, in the data set on DNA [11], the outcome was inactive. Besides, in the data set on DNA [12], the Tm amounted to 73.6 °C.

Take `O=C(O)c1ccc2c(c1)C(=O)OC21c2ccc(O)cc2Oc2cc(O)ccc21`: in data set [13], the Drug uptake entry is “Active”.

The IC50 is the point on the concentration scale where inhibition reaches its midpoint.

These data come from ChEMBL document CHEMBL6120982, “Cell-penetrating anti-sense peptide nucleic acids targeting sulfatase 2 inhibit adipogenesis in human mesenchymal stem cells” (Bioorg Med Chem, 2024).
